Laboratory results from patent US20200031778A1, “NOVEL 5-SUBSTITUTED IMIDAZOLYLMETHYL DERIVATIVES” (Bayer CropScience Aktiengesellschaft, priority 2016, published 2020).

Test: Log P by HPLC on reversed phase columns (EEC directive 79/831 Annex V.A8; methods [a], [b], [c])
Type: physicochemical
Settings: not given
Method in brief: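 Reversed-phase HPLC with LC-UV detection, 10→95% acetonitrile linear gradient; aqueous eluent 0.1% formic acid [a], 0.001 M ammonium acetate, neutral [b], or 0.1% phosphoric acid [c]. Calibrated against C3–C16 alkan-2-ones of known Log P by retention-time linear interpolation; multiple values within a method separated by "+".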

Compound | LogP
C[Si](C)(C)CC(O)(Cn1cncc1C#N)c1ccccc1F (stereo not drawn) [I-271] | 3.17^[a]
N#Cc1cncn1CC(O)(c1cnc(Cl)cc1Cl)C1(F)CC1 (stereo not drawn) [I-526] | 1.90^[a]
CC(O)(Cn1cncc1C#N)c1ccc(Oc2ccc(Cl)cc2F)nc1C(F)(F)F (stereo not drawn) [I-279] | 3.14^[a]
N#Cc1cncn1CC(O)c1ccc(Oc2c(F)cc(Cl)cc2F)nc1C(F)(F)F (stereo not drawn) [I-135] | 3.23^[a]
OC(Cn1cncc1Cl)c1ccc(Oc2ccc(I)cc2)cc1F (stereo not drawn) [I-31] | 2.51^[a]
CC(C)(C)C(O)(Cn1cncc1C#N)c1ccc(F)c(Br)c1 (stereo not drawn) [I-509] | 2.97^[a]
N#Cc1cncn1CC(O)(CC1CC1)c1cc(Cl)cc(Br)c1 (stereo not drawn) [I-531] | 2.93^[a]
COc1ccc(C(O)(CC2CC2)Cn2cncc2C#N)c(Cl)n1 (stereo not drawn) [I-548] | 2.10^[a]
N#Cc1cncn1CC(O)(c1ccc(Cl)cc1Br)C1CC1 (stereo not drawn) [I-405] | 2.80^[a]
N#Cc1cncn1CC(O)(c1ccc(Cl)cc1Cl)C1CC1 (stereo not drawn) [I-304] | 2.77^[a]
OC(Cn1cncc1F)(c1ccc(Br)cc1Cl)C1(F)CC1 (stereo not drawn) [I-430] | 1.76^[a]
C[Si](C)(CCC(O)(Cn1cncc1C#N)C1(Cl)CC1)c1ccccc1 (stereo not drawn) [I-667] | 3.70^[a]
N#Cc1cncn1CC(O)(c1ccc(C(F)(F)F)cc1Cl)C1(F)CC1 (stereo not drawn) [I-383] | 2.75^[a]
CCCC(C)CCC(O)(Cn1cncc1C#N)C1(Cl)CC1 (stereo not drawn) [I-677] | 3.69^[a]
COC(Cn1cncc1C#N)c1ccc(Oc2ccc(Cl)cc2)cc1C(F)(F)F (stereo not drawn) [I-81] | 4.15^[a]
N#Cc1cncn1CC(O)(c1cc(F)cc(Cl)c1F)C1(Cl)CC1 (stereo not drawn) [I-610] | 2.49^[a]
COC(Cn1cncc1Br)c1ccc(Oc2ccc(Br)cc2)cc1Br (stereo not drawn) [I-51] | 3.72^[a]
CC(=O)c1cncn1CC(C)(O)c1ccc(Oc2ccc(C(F)(F)F)cc2)cc1C(F)(F)F (stereo not drawn) [I-207] | 3.27^[a]
N#Cc1cncn1CC(O)(c1ccc(F)c(Cl)c1F)C1(F)CC1 (stereo not drawn) [I-635] | 2.35^[a]
CC(C)(C)C(O)(Cn1cncc1C#N)c1ccc(F)c(F)c1 (stereo not drawn) [I-483] | 2.66^[a]
Cc1ccc(C(O)(Cn2cncc2C#N)C2(Cl)CC2)c(Cl)c1 (stereo not drawn) [I-331] | 2.58^[a]

Compound | LogP
N#Cc1cncn1CC(O)(c1ccc(Cl)cc1F)C1CCCC1 (stereo not drawn) [I-458] | 3.12^[a]
N#Cc1cncn1CC(O)(c1cc(F)c(F)cc1Cl)C1(F)CC1 (stereo not drawn) [I-579] | 2.32^[a]
N#Cc1cncn1CC(O)(c1ccccc1C(F)(F)F)C1(F)CC1 (stereo not drawn) [I-348] | 2.28^[a]
OC(Cn1cncc1Cl)c1ccc(Oc2cccnc2)cc1Cl (stereo not drawn) [I-78] | 1.13^[a]
CCCCC(O)(Cn1cncc1C#N)c1ccc(F)cc1 (stereo not drawn) [I-228] | 2.47^[a]
CC(O)(Cn1cncc1Cl)c1ccc(Oc2ccc(Br)cc2)cc1Br (stereo not drawn) [I-185] | 3.06^[a]
CC(O)(Cn1cncc1C#N)c1ccc(Oc2ccc(Cl)cc2)cc1F (stereo not drawn) [I-188] | 3.20^[a]
N#Cc1cncn1CC(O)(C#Cc1ccc(C(F)(F)F)cc1)C1(Cl)CC1 (stereo not drawn) [I-350] | 3.09^[a]
N#Cc1cncn1CC(O)(c1ccc(C#CC2CCCC2)cc1F)C1(F)CC1 (stereo not drawn) [I-644] | 3.74^[a]
COc1cc(C(O)(Cn2cncc2C#N)C2(F)CC2)c(F)cc1Cl (stereo not drawn) [I-508] | 2.34^[a]
N#Cc1cncn1CC(=O)c1ccc(Oc2ccc(S(F)(F)(F)(F)F)cc2)nc1C(F)(F)F [IX-135] | 3.55^[a]
N#Cc1cncn1CC(O)c1ccc(Oc2ccc(S(F)(F)(F)(F)F)cc2)nc1Cl (stereo not drawn) [I-68] | 3.15^[a]
N#Cc1cncn1CC(O)(c1ccc(F)c(Cl)c1Cl)C1(F)CC1 (stereo not drawn) [I-624] | 2.45^[a]
N#Cc1cncn1CC(O)(c1c(F)cccc1Cl)C1(Cl)CC1 (stereo not drawn) [I-339] | 2.32^[a]
N#Cc1cncn1CC(O)(C#CCC1CCCCC1)C1CC1 (stereo not drawn) [I-591] | 3.02^[a]
CCCC(O)(Cn1cncc1C#N)c1ccc(C2CC2)cc1Cl (stereo not drawn) [I-407] | 3.19^[a]
N#Cc1cncn1CC(O)(c1cc(Br)c(F)cc1F)C1(Cl)CC1 (stereo not drawn) [I-582] | 2.66^[a]
CC(O)(Cn1cncc1F)c1cnc(Oc2ccc(OC(F)(F)F)cc2)cc1C(F)(F)F (stereo not drawn) [I-241] | 2.51^[a]
CC(O)(Cn1cncc1Cl)c1ccc(Oc2ccc(Br)nc2)cc1Cl (stereo not drawn) [I-203] | 2.11^[a]
COC(Cn1cncc1C#N)c1ccc(Oc2ccc(Br)cc2)cc1F (stereo not drawn) [I-55] | 3.79^[a]
N#Cc1cncn1CC(O)(C#CCC1CCCCC1)C1CCC1 (stereo not drawn) [I-592] | 3.51^[a]

Further lines, results first:

LogP | Compound
3.76^[a] | COC(Cn1cncc1C#N)c1ccc(Oc2ccc(Cl)cc2)cc1C(F)F (stereo not drawn) [I-74]
2.52^[a] | N#Cc1cncn1CC(O)(c1cccc(Cl)c1Cl)C1(Cl)CC1 (stereo not drawn) [I-337]
2.73^[a] | N#Cc1cncn1CC(O)(CC1CC1)c1cc(F)c(Cl)c(F)c1 (stereo not drawn) [I-499]
2.80^[a] | CC(O)(Cn1cncc1Br)c1ccc(Oc2ccc(Cl)cc2)cc1Br (stereo not drawn) [I-170]
3.35^[a] | N#Cc1cncn1CC(O)c1cnc(Oc2ccc(OC(F)(F)F)cc2)cc1C(F)(F)F (stereo not drawn) [I-125]
2.68^[a] | CC1(C(O)(Cn2cncc2C#N)c2ccc(Cl)cc2F)CC1 (stereo not drawn) [I-441]
3.33^[a] | CC(C)CCCC(O)(Cn1cncc1C#N)C1(Cl)CC1 (stereo not drawn) [I-599]
2.25^[a] | CC(C)CC#CC(O)(Cn1cncc1C#N)C1(F)CC1 (stereo not drawn) [I-540]
2.39^[a] | CC(O)(Cn1cncc1F)c1cnc(Oc2ccc(Br)cc2)cc1C(F)(F)F (single isomer, unassigned) [I-221]
2.58^[a] | N#Cc1cncn1CC(O)(c1ccc(Cl)c(Cl)c1F)C1(F)CC1 (stereo not drawn) [I-638]
3.08^[a] | CCCC(C)C(O)(Cn1cncc1C#N)c1ccc(Cl)cc1 (single isomer, unassigned) [I-327]
2.52^[a] | N#Cc1cncn1CC(O)(CC1CC1)c1ccc(F)c(Cl)c1 (stereo not drawn) [I-485]
2.44^[a] | CC(O)(Cn1cncc1Br)c1ccc(Oc2ccc(Cl)cc2)cc1F (stereo not drawn) [I-178]
2.37^[a] | N#Cc1cncn1CC(O)(c1ccccc1Br)C1(Cl)CC1 (stereo not drawn) [I-255]
3.03^[a] | N#Cc1cncn1CC(O)(c1cc(Cl)c(Cl)c(Cl)c1)C1(F)CC1 (stereo not drawn) [I-534]
2.56^[a] | N#Cc1cncn1CC(O)(CC1CC1)c1ccc(Cl)c(F)c1 (stereo not drawn) [I-486]
2.86^[a] | N#Cc1cncn1CC(O)(c1ccc(Cl)cc1F)C1CCC1 (stereo not drawn) [I-448]
4.25^[a] | COC(Cn1cncc1C#N)c1ccc(Oc2ccc(Br)cc2)cc1C(F)(F)F (stereo not drawn) [I-88]
2.49^[a] | N#Cc1cncn1CC(O)(c1cc(Br)ccc1F)C1(Cl)CC1 (stereo not drawn) [I-632]
3.76^[a] | COC(Cn1cncc1Cl)c1ccc(Oc2ccc(Br)cc2)cc1Br (stereo not drawn) [I-52]
2.98^[a] | CC(O)(Cn1cncc1Br)c1ccc(Oc2ccc(C(F)(F)F)cc2)cc1C(F)(F)F (stereo not drawn) [I-199]
1.90^[a] | N#Cc1cncn1CC(O)c1ccc(C(F)(F)F)cc1 (stereo not drawn) [I-141]
2.50^[a] | Cc1ccc(Oc2ccc(C(O)Cn3cncc3Cl)c(Cl)c2)cc1 (stereo not drawn) [I-02]
2.28^[a] | N#Cc1cncn1CC(O)(CC1CC1)c1cc(Cl)cc(Cl)c1 (stereo not drawn) [I-503]
2.44^[a] | N#Cc1cncn1CC(O)(c1cc(Cl)cc(F)c1F)C1(F)CC1 (stereo not drawn) [I-570]
2.71^[a] | CCCC(O)(Cn1cncc1C#N)c1ccc(F)cc1C(F)(F)F (stereo not drawn) [I-459]

Same assay, conditions: reversed phase HPLC column; method [a]: LC-UV, acidic range, 0.1% formic acid in water and acetonitrile as eluent (linear gradient from 10% to 95% acetonitrile)

chromatographic logP | Compound
2.82 | N#Cc1cncn1CC(=O)c1cnc(Oc2ccc(C(F)(F)F)nc2)cc1C(F)(F)F [IX-105]
